Series [1] can be described thus: Bioavailability of orally administered FTS formulated in corn oil (plasma FTS by LC/MS). The series is classed as in vivo, CD-1 mice. The following applies: CD-1, mouse, 40 mg/kg, mice, gavage, corn oil suspension. The procedure:
(§1) FTS (40 mg) was dispersed in corn oil (10 ml). Aliquots of the resulting suspension were administered by gavage to CD-1 mice (eighteen) at a dose of […] (at a volume of 10 ml/kg of FTS suspension calculated for actual animal weight). Blood samples were collected in lithium heparin tubes via the retro-orbital plexus while under CO2/O2 anesthesia at 1, 2, 4, 8, 12 and 24 hours (3 animals at each time point) after dosing. Aliquots (100 μL) of plasma were mixed with water, pH 11 buffer solution and acetonitrile. After centrifugation, the supernatant was evaporated to dryness. The residue was resuspended in water/acetonitrile and centrifuged, and the supernatant was transferred to auto-sampler vials for FTS determination by liquid chromatography/mass spectrometry (LC/MS).
There was a rapid decrease to less than 3 ng/ml after 24 hours.

The subject of the next series is Panc-1 cells. The series can be described thus: Inhibition of pancreatic tumor growth with orally administered FTS (subcutaneous Panc-1 implant). The series is classed as in vivo, Nude CD1-Nu Mice. The following applies: for average tumor weight: control 1.02 g. Here is the method:
Nude CD1-Nu Mice were implanted subcutaneously with 5.0×10^6 Panc-1 cells in 0.2 ml of PBS just above the right femoral joint. Eleven days after implantation, palpable tumors were observed. FTS was dispersed in 0.5% aqueous carboxymethylcellulose at a concentration of 5 mg/ml. On the eleventh day after implantation, mice were segregated into three groups and were given vehicle or FTS suspension by gavage. Group 1 (Controls, 6 mice) received 0.2 ml vehicle daily. Group 2 (20 mg/kg FTS, 7 mice) received 0.1 ml FTS suspension daily. Group 3 (40 mg/kg FTS, 6 mice) received 0.2 ml FTS suspension daily. Mice were treated for ten days, and were sacrificed. Tumors were excised and weighed.

Series [2] in a line: Bioavailability of orally administered FTS formulated in 0.5% aqueous carboxymethylcellulose (plasma FTS by LC/MS). The conditions noted are these: CD-1, mouse, 40 mg/kg, mice, gavage, 0.5% aqueous carboxymethylcellulose suspension. The series is classed as in vivo, CD-1 mice. The procedure: as §1, with “Mg)” for “mg)”, “0.5% aqueous carboxymethylcellulose” for “corn oil”, “12,” for “12”, “solution,” for “solution”, “re-suspended” for “resuspended”, “LC/MS.” for “liquid chromatography/mass spectrometry (LC/MS).”

The nature of series [3]: Bioavailability of orally administered FTS to rats (plasma FTS by LC/MS). The format is in vivo, Crl:CD(SD) (IGS)BR rats. The following applies: oral 200 mg/kg in corn oil (95%) and ethanol (5%). Here is the method: FTS was dissolved in a mixture of corn oil (95%) and ethanol (5%). Aliquots of the resulting solution were administered to Crl:CD(SD) (IGS)BR rats (twenty-four) at a dose of 200 mg/kg. Blood samples were collected in lithium-heparin-containing tubes via the retro-orbital plexus while under CO2/O2 anesthesia at 1, 2, 4, 8, 12 and 24 hours after dosing. Concentration of FTS at each time point was determined by LC/MS.

The nature of series [4]: Compatibility of FTS with pharmaceutical excipients (accelerated stability, HPLC assay). The format is physicochemical. The conditions noted are these: 1:1 w/w mixture with FTS, 40° C./75% RH, loosely capped vials. Here is the method: Physical mixtures (1:1 w/w) of FTS and representative pharmaceutical excipients commonly used in oral formulations were stored at 40° C./75% RH accelerated stress conditions for four weeks in loosely capped vials. Samples were assayed by HPLC at the 0, 2-week and 4-week time points.

Where [5] appears, read: oral, dose 40 mg/ml (10 ml/kg), 1 hour.
Where [6] appears, read: oral, dose 40 mg/ml (10 ml/kg), 2 hours.
Setting [7] is: oral, dose 40 mg/ml (10 ml/kg), 24 hours.
[8] abbreviates: po, read-out: oral bioavailability compared to intra-peritoneal injection.
[9] abbreviates: 20 mg/kg FTS daily by gavage in 0.5% CMC for ten days.
[10] abbreviates: 40 mg/kg FTS daily by gavage in 0.5% CMC for ten days.

The values below come from US8088756B2, “Methods and compositions for oral delivery of FTS” (Concordia Pharmaceuticals, Inc., priority 2004, dated 2012).

Structures are written as SMILES.

For orientation: bioavailability means the share of a dose that reaches the circulation, judged against a reference dose that is usually intravenous.

In the case of `CC(C)=CCC/C(C)=C/CC/C(C)=C/CSc1ccccc1C(=O)O` [FTS, farnesyl-thiosalicylic acid], the concentration at 1 h in series [1] (setting [5]) was 2160 ng/mL; in series [2] (setting [5]), 3380 ng/mL; in series [3] (Crl:CD(SD) (IGS)BR, rat, plasma, 1 hour), 4450 ng/mL. The concentration at 2 h in series [1] (setting [6]) was determined as 1330 ng/mL; in series [2] (setting [6]), 1590 ng/mL; in series [3] (Crl:CD(SD) (IGS)BR, rat, plasma, 2 hours), 4550 ng/mL. Also, the concentration at 24 h is less than 3 ng/mL in series [1] (setting [7]); less than 3 ng/mL in series [2] (setting [7]); 140 ng/mL in series [3] (Crl:CD(SD) (IGS)BR, rat, plasma, 24 hours). Besides, the bioavailability in series [1] (setting [8]) turned out to be 55%; in series [2] (setting [8]) it was 69%. Besides, the results for the “tumor weight lower than control” value with Panc-1 cells (setting [9]) and in the series with Panc-1 cells (setting [10]) were 32% and 53%, respectively. Moreover, the average tumor weight with Panc-1 cells (setting [9]) was determined as 0.68 g; in the series with Panc-1 cells (setting [10]), 0.47 g. Moreover, the concentration at 4 h in series [3] (Crl:CD(SD) (IGS)BR, rat, plasma, 4 hours) is 3050 ng/mL. For the same compound, the concentration at 8 h in series [3] (Crl:CD(SD) (IGS)BR, rat, plasma, 8 hours) amounted to 2220 ng/mL. In addition, the concentration at 12 h in series [3] (Crl:CD(SD) (IGS)BR, rat, plasma, 12 hours) stood at 685 ng/mL. The “oral bioavailability (in words)” value in series [3] was “high level of oral bioavailability”. Besides, in series [4] (0 weeks, in % (unit assumed)), the “HPLC assay, 0 weeks” value is listed as 97.75. Moreover, the HPLC assay, 2 weeks in series [4] (2 weeks) was found to be 97.1%. For the same compound, in series [4] (4 weeks, in % (unit assumed)), the “HPLC assay, 4 weeks” value was 97.76.
